PMC6225228, “Design, Synthesis and Evaluation of N-pyrazinylbenzamides as Potential Antimycobacterial Agents” (Molecules : A Journal of Synthetic Chemistry and Natural …, 2018)
Where two headings read alike, the source gives them in different places.

Columns and labels:
Candida tropicalis 156 = assay: Antifungal microdilution broth, CT; format: cell-based; settings: read-out: MIC CT
Candida krusei E28 = assay: Antifungal microdilution broth, CK; format: cell-based; settings: Pichia kudriavzevii, read-out: MIC CK
[1] = tested on: Staphylococcus aureus H 5996/08 methicillin resistant; assay: microbe, parasite or virus in culture; format: cell-based; settings: for MIC: Staphylococcus aureus, MRSA, read-out: MIC MRSA
[2] = tested on: Mycobacterium tuberculosis H37Rv CNCTC My 331/88 (ATCC 27294); assay: Antimycobacterial microdilution MABA, M. tuberculosis; format: cell-based; settings: for Mtb H37Rv ATCC 27294 MIC: Middlebrook 7H9 with OADC growth supplement, pH = 6.6, MABA; for MIC: Mycobacterium tuberculosis
[3] = tested on: Aspergillus fumigatus 231; assay: Antifungal microdilution broth, AF; format: cell-based; settings: read-out: MIC AF
[4] = tested on: Escherichia coli CCM 4517; assay: Antibacterial microdilution broth, EC; format: cell-based; settings: Escherichia coli, read-out: MIC EC
[5] = tested on: Trichophyton interdigitale 445; assay: Antifungal microdilution broth, TI; format: cell-based; settings: read-out: MIC TI
[6] = tested on: Lichtheimia corymbifera 272; assay: Antifungal microdilution broth, LC; format: cell-based; settings: read-out: MIC LC
[7] = tested on: M. avium ssp. avium CNCTC My 80/72 (ATCC 15769); assay: Antimycobacterial microdilution MABA, M. avium; format: cell-based, Mycobacterium avium; settings: for MIC: Mycobacterium avium, ATCC15769, pH 6.6, read-out: M. avium ATCC 15769 MIC; for M. avium ATCC 15769 MIC: Middlebrook 7H9 with OADC, pH 6.6, MABA
Candida glabrata 20/I = assay: Antifungal microdilution broth, CG; format: cell-based; settings: Nakaseomyces glabratus, 20/I, read-out: MIC CG
[8] = tested on: eight fungal strains of clinical importance; assay: Antifungal microdilution, all tested fungal strains; format: cell-based; settings: Trichophyton interdigitale, read-out: MIC, all tested fungal strains
[9] = tested on: M. kansasii CNCTC My 235/80 (ATCC 12478); assay: Antimycobacterial microdilution MABA, M. kansasii; format: cell-based, Mycobacterium kansasii; settings: for MIC: Mycobacterium kansasii, ATCC12478, pH 6.6, read-out: M. kans. ATCC 12478 MIC, Middlebrook 7H9 with OADC, pH 6.6, MABA; for M. kans. ATCC 12478 MIC: Middlebrook 7H9 with OADC, pH 6.6, MABA
Trichosporon asahii 1188 = assay: Antifungal microdilution broth, TA; format: cell-based; settings: read-out: MIC TA
[10] = tested on: Mycobacterium smegmatis CCM 4622 (ATCC 607); assay: Antimycobacterial microdilution, M. smegmatis; format: cell-based; settings: Mycolicibacterium smegmatis, read-out: M. smeg. ATCC 607 MIC
[11] = tested on: Candida albicans ATCC 44859; assay: Antifungal microdilution broth, CA; format: cell-based; settings: Candida albicans, read-out: MIC CA
[12] = tested on: Staphylococcus epidermidis H 6966/08; assay: Antibacterial microdilution broth, SE; format: cell-based; settings: read-out: MIC SE
[13] = tested on: Enterococcus sp. J 14365/08; assay: Antibacterial microdilution broth, EF; format: cell-based; settings: Enterococcus, read-out: MIC EF
[14] = tested on: Staphylococcus aureus CCM 4516/08; assay: Antibacterial microdilution broth, SA; format: cell-based
[15] = tested on: Pseudomonas aeruginosa CCM 1961; assay: Antibacterial microdilution broth, PA; format: cell-based; settings: Pseudomonas aeruginosa, read-out: MIC PA
[16] = human, HepG2 cells
[17] = Confirmatory prolonged HepG2 cytotoxicity, CellTox Green Cytotoxicity Assay; settings: human, HepG2 cells
[18] = read-out: Mtb H37Rv ATCC 27294 MIC, Middlebrook 7H9 with OADC growth supplement, pH = 6.6, MABA
[19] = Aspergillus fumigatus, 231, 24 h
[20] = Aspergillus fumigatus, 231, 48 h
[21] = Trichophyton interdigitale, 445, 72 h
[22] = Trichophyton interdigitale, 445, 120 h
[23] = Lichtheimia corymbifera, 272, 24 h
[24] = Lichtheimia corymbifera, 272, 48 h
[25] = Trichosporon asahii, 1188, 24 h
[26] = Trichosporon asahii, 1188, 48 h
[27] = Staphylococcus epidermidis, H6966/08, 24 h
[28] = Staphylococcus epidermidis, H6966/08, 48 h
[29] = Staphylococcus aureus, CCM4516, 24 h, read-out: MIC SA, 24 h
[30] = Staphylococcus aureus, CCM4516, 48 h, read-out: MIC SA, 48 h

O=C(Nc1cnc(Cl)cn1)c1ccc(O)cc1 [Compound 2d]
>100 µg/mL: Mtb H37Rv ATCC 27294 MIC [2]
>500 µM: MIC MRSA ([1]; 24 h) | MIC MRSA ([1]; 48 h)
31.2 µM: MIC [14, 29] | MIC [14, 30]
≥ 500 µM: MIC [8]
> 500 µM: MIC (Candida tropicalis 156; Candida tropicalis, 156, 24 h) | MIC (Candida tropicalis 156; Candida tropicalis, 156, 48 h) | MIC (Candida krusei E28; E28, 24 h) | MIC (Candida krusei E28; E28, 48 h) | MIC ([1]; 24 h) | MIC ([1]; 48 h) | MIC [3, 19] | MIC [3, 20] | MIC ([4]; CCM4517, 24 h) | MIC ([4]; CCM4517, 48 h) | MIC [5, 21] | MIC [5, 22] | MIC [6, 23] | MIC [6, 24] | MIC (Candida glabrata 20/I; 24 h) | MIC (Candida glabrata 20/I; 48 h) | MIC (Trichosporon asahii 1188; [25]) | MIC (Trichosporon asahii 1188; [26]) | MIC ([11]; ATCC44859, 48 h) | MIC ([13]; SP.J14365/08, 24 h) | MIC ([13]; SP.J14365/08, 48 h) | MIC ([15]; CCM1961, 72 h) | MIC ([15]; CCM1961, 120 h)
210.9 to 212.6 °C: melting point
≥ 500 µg/mL: MIC [10]
> 100 µg/mL: MIC [2, 18] | MIC [7] | MIC [9]
500 µM: MIC ([11]; ATCC44859, 24 h) | MIC [12, 27] | MIC [12, 28]

CC(=O)Oc1ccc(C(=O)Nc2cnc(Cl)cn2)cc1 [Compound 2d-Ac]
inactive: Mtb MIC ([2]; molar concentration)
250 µg/mL: MIC [10]
0.98 µM: MIC [14, 29] | MIC [14, 30]
>100 µg/mL: Mtb H37Rv ATCC 27294 MIC [2] | M. avium ATCC 15769 MIC [7] | M. kans. ATCC 12478 MIC [9]
> 500 µM: IC50 at 24 h [16]
> 125 µM: MIC (Candida tropicalis 156; Candida tropicalis, 156, 24 h) | MIC (Candida tropicalis 156; Candida tropicalis, 156, 48 h) | MIC (Candida krusei E28; E28, 24 h) | MIC (Candida krusei E28; E28, 48 h) | MIC ([1]; 24 h) | MIC ([1]; 48 h) | MIC [3, 19] | MIC [3, 20] | MIC ([4]; CCM4517, 24 h) | MIC ([4]; CCM4517, 48 h) | MIC [5, 21] | MIC [5, 22] | MIC [6, 23] | MIC [6, 24] | MIC (Candida glabrata 20/I; 24 h) | MIC (Candida glabrata 20/I; 48 h) | MIC (Trichosporon asahii 1188; [25]) | MIC (Trichosporon asahii 1188; [26]) | MIC ([11]; ATCC44859, 24 h) | MIC ([11]; ATCC44859, 48 h) | MIC [12, 27] | MIC [12, 28] | MIC ([13]; SP.J14365/08, 24 h) | MIC ([13]; SP.J14365/08, 48 h) | MIC ([15]; CCM1961, 72 h) | MIC ([15]; CCM1961, 120 h)
170.9 to 171.8 °C: melting point
> 100 µg/mL: MIC [2, 18] | MIC [7] | MIC [9]
>125 µM: MIC MRSA ([1]; 24 h) | MIC MRSA ([1]; 48 h) | MIC ([12]; 24 h) | MIC ([12]; 48 h)

CCc1ccc(C(=O)Nc2cnc(Cl)cn2)cc1 [Compound 2i]
> 250 µM: IC50 at 24 h [16]
3.13 µg/mL: Mtb H37Rv ATCC 27294 MIC [2]
>100 µg/mL: M. avium ATCC 15769 MIC [7] | M. kans. ATCC 12478 MIC [9]
> 125 µM: MIC (Candida tropicalis 156; Candida tropicalis, 156, 24 h) | MIC (Candida tropicalis 156; Candida tropicalis, 156, 48 h) | MIC (Candida krusei E28; E28, 24 h) | MIC (Candida krusei E28; E28, 48 h) | MIC ([1]; 24 h) | MIC ([1]; 48 h) | MIC [3, 19] | MIC [3, 20] | MIC ([4]; CCM4517, 24 h) | MIC ([4]; CCM4517, 48 h) | MIC [5, 21] | MIC [5, 22] | MIC [6, 23] | MIC [6, 24] | MIC (Candida glabrata 20/I; 24 h) | MIC (Candida glabrata 20/I; 48 h) | MIC (Trichosporon asahii 1188; [25]) | MIC (Trichosporon asahii 1188; [26]) | MIC ([11]; ATCC44859, 24 h) | MIC ([11]; ATCC44859, 48 h) | MIC [12, 27] | MIC [12, 28] | MIC ([13]; SP.J14365/08, 24 h) | MIC ([13]; SP.J14365/08, 48 h) | MIC [14, 29] | MIC [14, 30] | MIC ([15]; CCM1961, 72 h) | MIC ([15]; CCM1961, 120 h)
>125 µM: MIC ([14]; 24 h, read-out: MIC SA)
≥ 500 µg/mL: MIC [10]
250 µM: IC50 at 48 h [17]
264 µM: IC50 at 24 h [17]
12 µM: MIC ([2]; read-out: Mtb MIC, molar concentration)
3.13 to 6.25 µg/mL: MIC [2, 18]
> 100 µg/mL: MIC [7] | MIC [9]
